# Data taken from patent publication US11576979B2, “Pyrrolobenzodiazepine prodrugs and antibody conjugates thereof” (GENENTECH, INC., priority 2016, dated 2023).
# Read-outs that look alike come from different tables or passages of the source.
# Experiments:
# [1] = tested on: WSU-DLCL2; test: CELLTITER GLO cell proliferation assay (Example 6); type: cell-based; conditions: data in parenthesis = repeat evaluations, read-out: IC50 potency WSU-DLCL2
# Method in brief: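 Cells seeded at about 8000 (WSU-DLCL2) or 4000 (KPL-4) per well in RPMI-1640 with 10% FBS, 2 mM glutamine, 50 uM cystine and 0.015 g/L L-methionine; 10-point 1:3 dose-response in triplicate, cultured at 37° C., 5% CO2. Viability read by CellTiter-Glo luminescence, normalized to no-compound minus no-cell controls.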
# [2] = tested on: MDA-MB-453 tumor cell line; test: in vitro tumor cell killing assay, 3 days (Example 13); type: cell-based; conditions: Homo sapiens, 72 h; MDA-MB-453; 3 days; read-out: EC50
# Experimental: The toxicity of various PBD monomer and dimer boronic acid prodrug compounds were evaluated for cell toxicity. In the in vitro tumor cell killing assay, the cells were added to each well of 96-well microtiter plates at 8,000 cells per well and were incubated overnight at 37° C. in a humidified atmosphere of 5% CO2. The cells were exposed to various concentration of the indicated prodrug, positive control and negative control compounds. Where silvestrol was evaluated, a 1:3 serial dilution was used. After incubation for 3 days, Cell titer-Glo reagent (Promega, Madison Wis.) was added to the wells at 100 μL per well followed by a 10-minute incubation at room temperature, and the luminescent signal was measured using a Packard/Perkin-Elmer TopCount.
# The toxicity of PBD monomer boronic acid prodrug 1 was evaluated against MDA-MB-453 tumor cell line for cell viability. PBD monomer control 1 was used as a positive control and PBD monomer control 2 was used as a negative control. The toxicity study was repeated wherein the PBD prodrug and controls were administered in combination with silvestrol. FIG. 15C depicts a plot of MDA-MB-453 cell kill versus drug concentration in μM three days after exposure to: (i) a PBD monomer control; (ii) a PBD monomer control having a benzyl formate moiety at the N10 PBD position; and (iii) a PBD monomer boronic acid prodrug. […]
smiles,measurement,setting,value
"C=C1C[C@H]2C=Nc3cc(OC)c(OC)cc3C(=O)N2C1 [PBD monomer control 1, reference compound]",IC50,"[1]; Homo sapiens, WSUDLCL2, Table 4",106 nM
same,IC50,[1]; Table 4,109 nM
same,EC50,[2],164 nM
